Experimental data taken from ChEMBL document CHEMBL1149596, “QSAR study of selective ligands for the thyroid hormone receptor beta” (Bioorg Med Chem, 2007).
Where “and” joins values, the source holds several entries; their conditions need not be identical. Identical values can stand only once.

Target: T1, Thyroid hormone receptor beta (Homo sapiens, UniProt P10828)
T1 sequence (P10828 whole entry): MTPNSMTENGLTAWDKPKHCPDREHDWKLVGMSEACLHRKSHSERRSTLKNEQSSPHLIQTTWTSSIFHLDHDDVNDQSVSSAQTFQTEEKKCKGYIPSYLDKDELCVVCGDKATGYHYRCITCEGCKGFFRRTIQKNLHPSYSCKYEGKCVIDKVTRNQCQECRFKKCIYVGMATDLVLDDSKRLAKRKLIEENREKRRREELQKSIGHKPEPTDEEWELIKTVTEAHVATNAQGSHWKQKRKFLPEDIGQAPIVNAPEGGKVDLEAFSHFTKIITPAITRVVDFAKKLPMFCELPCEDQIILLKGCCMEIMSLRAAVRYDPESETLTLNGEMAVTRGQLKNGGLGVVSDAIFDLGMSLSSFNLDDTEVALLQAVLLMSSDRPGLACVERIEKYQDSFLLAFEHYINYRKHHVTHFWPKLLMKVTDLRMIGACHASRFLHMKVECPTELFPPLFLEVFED

Compound | IC50
COc1ccccc1CCNC(=O)c1cc(Oc2c(Br)cc(CC(=O)O)cc2Br)ccc1O | 0.468 nM
O=C(O)Cc1cc(Br)c(Oc2ccc(O)c(C(=O)NCC(c3ccccc3)c3ccccc3)c2)c(Br)c1 | 37.2 nM
COc1cccc(CCNC(=O)c2cc(Oc3c(Br)cc(CC(=O)O)cc3Br)ccc2O)c1 | 8.51 nM
O=C(NC1CCCCC1)c1cc(Oc2c(Cl)cc(-n3ncc(=O)[nH]c3=O)cc2Cl)ccc1O | 0.195 nM
Cc1cc(-n2ncc(=O)[nH]c2=O)cc(C)c1Oc1ccc(O)c(S(=O)(=O)N2CCCCC2)c1 | 1.29 nM
O=c1cnn(-c2cc(Cl)c(Oc3ccc(O)c(S(=O)(=O)NC4CCC4)c3)c(Cl)c2)c(=O)[nH]1 | 1.12 nM
Cc1cc(-n2ncc(=O)[nH]c2=O)cc(Cl)c1Oc1ccc(O)c(S(=O)(=O)N2CCCCC2)c1 | 0.363 nM
O=C(c1cc(Oc2c(Cl)cc(-n3ncc(=O)[nH]c3=O)cc2Cl)ccc1O)N1CCCCC1 | 1.74 nM and 5.25 nM
O=c1cnn(-c2cc(Cl)c(Oc3ccc(O)c(S(=O)(=O)N4C5CCC4CC4(CCCO4)C5)c3)c(Cl)c2)c(=O)[nH]1 (configuration not stated) | 0.776 nM
O=C(O)Cc1cc(Br)c(Oc2ccc(O)c(C(=O)NC(=O)c3ccccc3)c2)c(Br)c1 | 4.17 nM
COc1ccc(CCNC(=O)c2cc(Oc3c(Br)cc(CC(=O)O)cc3Br)ccc2O)cc1 | 4.79 nM
O=C(c1cc(Oc2c(Cl)cc(-n3ncc(=O)[nH]c3=O)cc2Cl)ccc1O)N1CCOCC1 | 2 nM

More lines, now with the values ahead:

IC50 | Compound
0.0562 nM | O=c1cnn(-c2cc(Cl)c(Oc3ccc(O)c(S(=O)(=O)N4CCCCC4)c3)c(Cl)c2)c(=O)[nH]1
0.871 nM | O=c1cnn(-c2cc(Cl)c(Oc3ccc(O)c(S(=O)(=O)N4C5CCC4CC4(C5)OCCO4)c3)c(Cl)c2)c(=O)[nH]1
0.166 nM | CC1(C)C2CCC(NC(=O)c3cc(Oc4c(Cl)cc(-n5ncc(=O)[nH]c5=O)cc4Cl)ccc3O)C1C2 (stereo in doubt; 42)
75.9 nM | Cc1cc(-n2ncc(=O)[nH]c2=O)cc(Cl)c1Oc1ccc(O)c(S(=O)(=O)N2CCOCC2)c1
0.112 nM | CC1(C)C2CCC(NC(=O)c3cc(Oc4c(Cl)cc(-n5ncc(=O)[nH]c5=O)cc4Cl)ccc3O)C1C2 (stereo in doubt; 43)
1.29 nM | O=c1cnn(-c2cc(Cl)c(Oc3ccc(O)c(S(=O)(=O)NC4CCCCC4)c3)c(Cl)c2)c(=O)[nH]1
0.646 nM | O=c1cnn(-c2cc(Cl)c(Oc3ccc(O)c(S(=O)(=O)N4CCc5ccccc54)c3)c(Cl)c2)c(=O)[nH]1
0.282 nM | O=c1cnn(-c2cc(Cl)c(Oc3ccc(O)c(S(=O)(=O)Nc4ccccc4)c3)c(Cl)c2)c(=O)[nH]1
1.78 nM | O=C(NC1CCC1)c1cc(Oc2c(Cl)cc(-n3ncc(=O)[nH]c3=O)cc2Cl)ccc1O
1.02 nM | CC1(C)C2CCC1(C)[C@H](NC(=O)c1cc(Oc3c(Cl)cc(-n4ncc(=O)[nH]c4=O)cc3Cl)ccc1O)C2 (some centres not stated)
